Laboratory results: patent US20240365785A1, “ACTIVE COMPOUND COMBINATIONS AND FUNGICIDE COMPOSITIONS COMPRISING THOSE” (Bayer Aktiengesellschaft, priority 2021, published 2024)

What was measured:
Format in all cases: cell-based
Conditions in all cases: alone
Botrytis cinerea = assay: in vitro-Test with Botrytis cinerea
Colletotrichum coccodes = assay: in vitro-Test with Colletotrichum coccodes
Diaporthe citri = assay: in vitro-Test with Diaporthe citri
Alternaria alternata = assay: in vitro-Test with Alternaria alternata
Cordana musae = assay: in vitro-Test with Cordana musae
Fusarium culmorum = assay: in vitro-Test with Fusarium culmorum
Protocol: Wells of 96-well microtiter plates are filled with 10 μl of a preparation of test compound or compound combination in methanol+emulsifier alkylaryl-polyglycol-ether. Thereafter, the solvent is evaporated in a hood. At the next step, into each well 100 μl of liquid potato dextrose medium is given, that has been amended with an appropriate concentration of spores or mycelium suspension of the test fungus.
With the aid of a photometer the extinction in all wells is measured at the wavelength of 620 nm.
The microtiter plates are incubated at 20° C. and 85% relative humidity. The inhibition of growth is determined again photometrically 3-5 days after the application. Efficacy is calculated in relation to the untreated control, 0% efficacy means fungal growth as high as in untreated control while 100% efficacy means no fungal growth is measured.

CCC(=O)Oc1c(OC)ccnc1C(=O)N[C@@H](C)C(=O)O[C@@H](C)[C@@H](C)c1ccccc1C [(3.017) Metarylpicoxamid, metarylpicoxamid, reference compound] was tested, and the Efficacy % (Botrytis cinerea; 0.8 ppm) was 0%, the Efficacy % (Botrytis cinerea; 10 ppm) was 20% and the Efficacy % (Colletotrichum coccodes; 0.08 ppm) was 19%. It also gave an Efficacy % (Colletotrichum coccodes; 0.4 ppm) of 26%, an Efficacy % (Diaporthe citri; 2 ppm) of 89% and an Efficacy % (Diaporthe citri; 10 ppm) of 89%. For the same molecule, the Efficacy % (Alternaria alternata; 10 ppm) was 50%, the Efficacy % (Cordana musae; 0.08 ppm) was 44% and the Efficacy % (Fusarium culmorum; 0.08 ppm) was 10%. It also gave an Efficacy % (Fusarium culmorum; 2 ppm) of 0% and an Efficacy % (Fusarium culmorum; 10 ppm) of 4%.

Work on COC(=O)C(O)(Cn1cncn1)c1ccc(Oc2ccc(Cl)cc2)cc1Cl (centres unmarked) [(I-1), Methyl 2-[2-chloro-4-(4-chlorophenoxy)phenyl]-2-hydroxy-3-(1,2,4-triazol-1-yl)propanoate] yielded an Efficacy % (Botrytis cinerea; 0.02 ppm) of 1%, an Efficacy % (Botrytis cinerea; 0.1 ppm) of 0% and an Efficacy % (Colletotrichum coccodes; 0.02 ppm) of 0%. The Efficacy % (Colletotrichum coccodes; 0.1 ppm) was 0%, the Efficacy % (Colletotrichum coccodes; 2.5 ppm) was 91% and the Efficacy % (Diaporthe citri; 0.02 ppm) was 0%. For the same molecule, the Efficacy % (Diaporthe citri; 0.1 ppm) was 0%, the Efficacy % (Diaporthe citri; 2.5 ppm) was 100% and the Efficacy % (Alternaria alternata; 0.02 ppm) was 3%. The Efficacy % (Alternaria alternata; 0.1 ppm) was 0%, the Efficacy % (Alternaria alternata; 0.5 ppm) was 18% and the Efficacy % (Cordana musae; 0.02 ppm) was 14%. The Efficacy % (Cordana musae; 0.5 ppm) was 54%, the Efficacy % (Cordana musae; 2.5 ppm) was 97% and the Efficacy % (Fusarium culmorum; 2.5 ppm) was 25%.
